The source of these data is patent US6476051B2, “Antipsychotic heterocycle compounds” (Bristol-Myers Squibb Company, priority 1999, dated 2002).

Experiment [1] deals with T1, recombinant human dopamine D2L receptors (Homo sapiens, UniProt P14416).
T1 construct: expressed in transfected cells; host or cells: HEK-293 (HEK-D2L cells), membrane homogenates
Kind of experiment: Dopamine binding protocol ([3H]-spiperone binding, HEK-D2L cell membranes). On the procedure:
Like many clinically effective antipsychotic agents, the compounds of Formula I also are antagonists at the human D2L receptor as determined by [^3H]-spiperone binding studies using human D2L receptors stably expressed in HEK-293 cells.
HEK-293 cells that stably express recombinant human dopamine D2L receptors (HEK-D2L cells) were grown at 37° C. in 5% CO2 as a monolayer in medium consisting of EMEM supplemented with 10% fetal bovine serum and G418 sulfate (500 μg/ml). To prepare membranes for radioligand binding experiments, cells were rinsed twice with phosphate-buffered saline (138 mM NaCl, 4.1 mM KCl, 5.1 mM Na2PO4, 1.5 mM […] 11.1 mM glucose, pH 7.4), and incubated for 5-10 min. at 4° C. in hypotonic lysis buffer consisting of 10 mM Tris (pH 7.4) and 5 mM EDTA. Cells were transferred from plates to polypropylene tubes (16×100 mm), homogenized and centrifuged at 32,000×g for 20 min. Following centrifugation, pellets were resuspended by homogenization in buffer consisting of 50 mM Tris (pH 7.7 at 25° C.) and 1 mM EDTA. Homogenates were stored at −80° C. until needed. On the day of an experiment, homogenates were thawed then centrifuged at 32,000×g for 20 min. Following centrifugation, supernatants were discarded and pellets were resuspended in assay buffer consisting of 50 mM Tris (pH 7.4 at 25° C.), 1 mM EDTA and 6 mM MgCl2. Membrane homogenates (˜5 μg) were incubated with 150 pM [^3H]-spiperone (Amersham Life Science) and increasing concentrations of test compounds for 1.5 hours at 22° C. in a total volume of 400 μl. Reactions were stopped by addition of ice-cold assay buffer and filtration over glass fiber filters (Whatman GFB, pre-soaked in 0.05% polyethylenimine) using a microtitre format Brandel cell harvester. Filters were washed with 3 ml of ice-cold assay buffer. Non-specific binding was defined with 2 μM (+)butaclamol. Ki values were calculated using the method of Cheng and Prusoff (1973). Protein concentrations were determined by the method of Bradford (1976) with BSA as a standard.
Test data IC50 values lower than 250 nM are considered to reflect affinity for dopamine D2L receptors.

The target of experiment [2] is T2, human serotonin transporters (Homo sapiens, UniProt P31645).
T2 construct: expressed in transfected cells; host or cells: HEK-293 (HEK-hSERT cells), membrane homogenates
Briefly: Serotonin transporter binding assay ([3H]-citalopram binding, HEK-hSERT cell membranes). From the text: The compounds of Formula I bind potently to the human 5-HT transporter and inhibit the re-uptake of endogenous serotonin. Selective serotonin reuptake inhibitors (SSRIs) are effective for the treatment of mental depression and have been reported to be useful for treating chronic pain (see: R. W. Fuller, Pharmacologic Modification of Serotonergic Function: Drugs for the Study and Treatment of Psychiatric and Other Disorders,” J. Clin. Psychiatry, 47:4 (Suppl.) April 1986, pp. 4-8). Compounds of the present invention are also envisioned to be useful for treating psychosis, acute mania, mild anxiety states or depression with secondary psychotic episodes. The present compounds are also envisioned to be useful in treating obsessive-compulsive disorders, feeding disorders, anxiety disorders and panic disorders.
HEK-293 cells that stably express human serotonin transporters (HEK-hSERT cells) were grown at 37° C. in 5% CO2 as a monolayer in medium consisting of EMEM supplemented with 10% fetal bovine serum and G418 sulfate (500 μg/ml). To prepare membranes for radioligand binding experiments, cells were rinsed twice with phosphate-buffered saline (138 mM NaCl, 4.1 mM KCl, 5.1 mM Na2PO4, 1.5 mM […], 11.1 mM glucose, pH 7.4). Cells were transferred from plates to polypropylene tubes (16×100 mm), centrifuged at 1,200×g for 5 min and were frozen at −80° C. until assay. Following centrifugation, pellets were resuspended by homogenization in buffer consisting of 50 mM Tris (pH 7.7 at 25° C.), 120 mM NaCl and 5 mM KCl and then centrifuged at 32,000×g for 10 min. Following centrifugation, supernatants were discarded and pellets were resuspended in buffer consisting of 50 mM Tris (pH 7.4 at 25° C.), 150 mM NaCl and 5 mM KCl. Membrane homogenates (200 μl/plate) were incubated with 1 nM [^3H]-citalopram (specific activity=85 Ci/mmol) and increasing concentrations of test compounds for 1 hour at 25° C. in a total volume of 250 μl. The assay buffer consisted of 50 mM Tris (pH 7.4 at 25° C.), 120 mM NaCl and 5 mM KCl (pH 7.4 with conc. HCl). Plates were incubated for 1 hour at 25° C., then filtered through 0.5% PEI treated Whatman GF/B filters using a Brandel cell harvester. Filters were washed three times with 3 ml of ice-cold tris wash buffer. Non-specific binding was defined with 10 μM fluoxetine. Amount of radioligand bound in the presence and absence of competitor was analyzed by plotting (−)log drug concentration versus the amount of radioligand specifically bound. The midpoint of the displacement curve (IC50, nM), signifies the potency. Ki values were calculated using the method of Cheng and Prusoff (1973).
Substances which inhibit the re-uptake of serotonin are recognized to be effective antidepressants (Selective Serotonin Reuptake Inhibitors. Edited by J P Feighner and W F Boyer, Chichester, England. John Wiley & Sons, 1991, pp 89-108). Test data IC50 values lower than 250 nM are considered to reflect activity as an inhibitor of serotonin re-uptake.

Where [3] appears, read: [3H]-spiperone, HEK-D2L membranes, read-out: dopamine D2L ligands with Ki.
The mark [4] stands for this setting: [3H]-citalopram, HEK-hSERT membranes, read-out: inhibit the re-uptake of serotonin with Ki.

Where two headings read alike, the source gives them in different places.

T2 sequence (P31645 whole entry): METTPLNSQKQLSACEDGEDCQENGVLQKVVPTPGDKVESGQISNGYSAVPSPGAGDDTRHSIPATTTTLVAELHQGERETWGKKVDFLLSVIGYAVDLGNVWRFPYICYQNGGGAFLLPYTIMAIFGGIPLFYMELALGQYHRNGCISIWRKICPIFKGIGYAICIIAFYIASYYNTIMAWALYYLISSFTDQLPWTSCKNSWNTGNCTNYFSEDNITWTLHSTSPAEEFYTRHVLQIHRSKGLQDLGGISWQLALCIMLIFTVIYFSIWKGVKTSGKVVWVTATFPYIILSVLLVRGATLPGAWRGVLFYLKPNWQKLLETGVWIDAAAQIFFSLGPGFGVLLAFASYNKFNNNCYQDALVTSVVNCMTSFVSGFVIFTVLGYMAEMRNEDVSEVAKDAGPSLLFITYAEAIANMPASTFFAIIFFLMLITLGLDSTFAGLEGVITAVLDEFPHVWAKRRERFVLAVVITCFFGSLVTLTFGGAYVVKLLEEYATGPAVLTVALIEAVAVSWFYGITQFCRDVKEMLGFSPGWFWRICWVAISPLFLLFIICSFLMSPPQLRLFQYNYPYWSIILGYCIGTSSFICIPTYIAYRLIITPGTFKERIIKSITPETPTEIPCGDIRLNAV
T1 sequence (P14416 whole entry): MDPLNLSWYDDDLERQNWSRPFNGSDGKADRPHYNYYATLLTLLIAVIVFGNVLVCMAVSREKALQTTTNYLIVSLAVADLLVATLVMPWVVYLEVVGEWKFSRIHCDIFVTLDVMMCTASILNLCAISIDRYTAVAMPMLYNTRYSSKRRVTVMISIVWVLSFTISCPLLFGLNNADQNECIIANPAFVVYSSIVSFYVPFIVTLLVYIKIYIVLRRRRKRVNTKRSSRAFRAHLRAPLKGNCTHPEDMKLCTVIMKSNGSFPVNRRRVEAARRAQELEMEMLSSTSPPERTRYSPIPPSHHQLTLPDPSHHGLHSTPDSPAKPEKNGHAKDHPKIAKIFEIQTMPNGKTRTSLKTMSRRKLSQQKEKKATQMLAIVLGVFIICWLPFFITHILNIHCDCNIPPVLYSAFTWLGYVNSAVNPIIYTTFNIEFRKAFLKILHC

As usually defined, the Ki is a measure of affinity in units of concentration, obtained from inhibition or displacement. As to `Cc1nc2cc(OCCCN3CCC(Cc4cc(F)ccc4F)CC3)ccc2s1` [Example 45, 5-(3-{4-[(2,-5-difluorophenyl)methyl]piperidinyl}propoxy)-2-methylbenzothiazole], the Ki in experiment [1] (setting [3]) and in experiment [2] (setting [4]) was less than 100 nM throughout.
As for `Cc1nc2cc(OCCCCN3CC=C(c4c[nH]c5cccc(F)c45)CC3)ccc2s1` [Example 13, 5-{4-[4-(4-fluoroindol-3-yl)1,2,5,6-tetrahydropyrid-1-yl]butoxy}-2-methylbenzothiazole], the Ki in experiment [1] and in experiment [2] was less than 100 nM each time.
As for `Cc1nc2cc(OCCCCN3CC=C(c4c[nH]c5c(F)cccc45)CC3)ccc2s1` [Example 18, 5-{4-[4-(7-fluoroindol-3-yl)1,2,5,6-tetrahydropyrid-1-yl]butoxy}-2-methylbenzothiazole], the Ki in experiment [1] and in experiment [2] was less than 100 nM each time.
With `N#Cc1ccc2[nH]cc(C3CCN(CCCOc4ccccc4F)CC3)c2c1` [Example 5, 3-{1-[3-(2-fluorophenoxy)propyl]-4-piperidinyl}-5-cyanoindole], the Ki in experiment [1] (setting [3]) and in experiment [2] (setting [4]) was less than 100 nM throughout.
On to `Cc1nc2cc(OCCCN3CC=C(c4c[nH]c5c(F)cccc45)CC3)ccc2s1` [Example 17, 5-{3-[4-(7-fluoroindol-3-yl)-1,2,5,6-tetrahydropyrid-1-yl]propoxy}-2-methylbenzothiazole], for which the Ki in experiment [1] and in experiment [2] was less than 100 nM throughout.
Consider `N#Cc1ccc2[nH]cc(C3CCN(CCCOc4ccccc4)CC3)c2c1` [Example 4, 3-[1-(3-phenoxypropyl)-4-piperidinyl]-5-cyanoindole], for which the Ki in experiment [1] (setting [3]) and in experiment [2] (setting [4]) was less than 100 nM throughout.
In the case of `COc1ccc(OCCCN2CCC(c3c[nH]c4ccc(C#N)cc34)CC2)cc1` [Example 9, 3-{1-[3-(4-methoxyphenoxy)propyl]-4-piperidinyl}-5-cyanoindole], the Ki in experiment [1] (setting [3]) and in experiment [2] (setting [4]) was less than 100 nM each time.
For `COc1cccc(OCCCN2CCC(c3c[nH]c4ccc(C#N)cc34)CC2)c1` [Example 8, 3-{1-[3-(3-methoxyphenoxy)propyl]-4-piperidinyl}-5-cyanoindole], the Ki in experiment [1] (setting [3]) and in experiment [2] (setting [4]) was less than 100 nM throughout.
Consider `Cc1nc2cc(OCCCCN3CC=C(c4c[nH]c5ccc(F)cc45)CC3)ccc2s1` [Example 15, 5-{4-[4-(5-fluoroindol-3-yl)1,2,5,6-tetrahydropyrid-1-yl]butoxy}-2-methylbenzothiazole], for which the Ki in experiment [1] and in experiment [2] was less than 100 nM each time.
`Cc1nc2cc(OCCCN3CC=C(c4c[nH]c5cc(Br)ccc45)CC3)ccc2s1` [Example 25, 5-{3-[4-(6-bromoindol-3-yl)-1,2,5,6-tetrahydropyrid-1-yl]propoxy}-2-methylbenzothiazole]: the Ki in experiment [1] and in experiment [2] was less than 100 nM each time.
`Cc1nc2cc(OCCCN3CC=C(c4c[nH]c5ccc(F)cc45)CC3)ccc2s1` [Example 34, 5-{3-[4-(5-fluoroindol-3-yl)-1,2,5,6-tetrahydropyrid-1-yl]propoxy}-2-methylbenzothiazole]: the Ki in experiment [1] and in experiment [2] was less than 100 nM throughout.
Take `Cc1nc2cc(OCCCN3CC=C(c4c[nH]c5cc(Cl)ccc45)CC3)ccc2s1` [Example 22, 5-{3-[4-(6-chloroindol-3-yl)-1,2,5,6-tetrahydropyrid-1-yl]propoxy}-2-methylbenzothiazole]: the Ki in experiment [1] and in experiment [2] was less than 100 nM in each case.
Regarding `COc1ccc(OCCCN2CCC(c3c[nH]c4ccc(C#N)cc34)CC2)cc1OC` [Example 10, 3-{1-[3-(3,4-dimethoxyphenoxy)propyl]-4-piperidinyl}-5-cyanoindole], the Ki in experiment [1] (setting [3]) and in experiment [2] (setting [4]) was less than 100 nM in each case.
Consider `Cc1nc2cc(OCCCCCN3CC=C(c4c[nH]c5cccc(F)c45)CC3)ccc2s1` [Example 14, 5-{5-[4-(4-fluoroindol-3-yl)-1,2,5,6-tetrahydropyrid-1-yl]pentoxy}-2-methylbenzothiazole], for which the Ki in experiment [1] and in experiment [2] was less than 100 nM throughout.
As to `COc1ccccc1OCCCN1CCC(c2c[nH]c3ccc(C#N)cc23)CC1` [Example 7, 3-{1-[3-(2-methoxyphenoxy)propyl]-4-piperidinyl}-5-cyanoindole], the Ki in experiment [1] (setting [3]) and in experiment [2] (setting [4]) was less than 100 nM in each case.
With `Cc1nc2cc(OCCCCN3CC=C(c4c[nH]c5ccc(C#N)cc45)CC3)ccc2s1` [Example 38, 5-{4-[4-(5-cyanoindol-3-yl)-1,2,5,6-tetrahydropyrid-1-yl]butoxy}-2-methylbenzothiazole], the Ki in experiment [1] and in experiment [2] was less than 100 nM each time.
In the case of `Cc1nc2cc(OCCCCCN3CC=C(c4c[nH]c5c(F)cccc45)CC3)ccc2s1` [Example 19, 5-{5-[4-(7-fluoroindol-3-yl)-1,2,5,6-tetrahydropyrid-1-yl]pentoxy}-2-methylbenzothiazole], the Ki in experiment [1] and in experiment [2] was less than 100 nM throughout.
As for `Cc1nc2cc(OCCCN3CCC(Cc4cc(F)ccc4Br)CC3)ccc2s1` [Example 44, 5-(3-{4-[(2-bromo-5-fluorophenyl)methyl]piperidinyl}propoxy)-2-methylbenzothiazole], the Ki in experiment [1] (setting [3]) and in experiment [2] (setting [4]) was less than 100 nM throughout.
On to `Cc1nc2cc(OCCCCN3CC=C(c4c[nH]c5cc(Cl)ccc45)CC3)ccc2s1` [Example 23, 5-{4-[4-(6-chloroindol-3-yl)1,2,5,6-tetrahydropyrid-1-yl]butoxy}-2-methylbenzothiazole], for which the Ki in experiment [1] and in experiment [2] was less than 100 nM each time.
As to `Cc1nc2cc(OCCCCCN3CC=C(c4c[nH]c5cc(Br)ccc45)CC3)ccc2s1` [Example 27, 5-{5-[4-(6-bromoindol-3-yl)-1,2,5,6-tetrahydropyrid-1-yl]pentoxy}-2-methylbenzothiazole], the inhibition constant Ki in experiment [1] and in experiment [2] was less than 100 nM throughout.
On to `Cc1nc2cc(OCCCCCN3CC=C(c4c[nH]c5cc(Cl)ccc45)CC3)ccc2s1` [Example 24, 5-{5-[4-(6-chloroindol-3-yl)-1,2,5,6-tetrahydropyrid-1-yl]pentoxy}-2-methylbenzothiazole], for which the Ki in experiment [1] and in experiment [2] was less than 100 nM each time.
On to `Cc1nc2cc(OCCCCCN3CC=C(c4c[nH]c5c(Br)cccc45)CC3)ccc2s1` [Example 30, 5-{5-[4-(7-bromoindol-3-yl)-1,2,5,6-tetrahydropyrid-1-yl]pentoxy}-2-methylbenzothiazole], for which the Ki in experiment [1] and in experiment [2] was less than 100 nM each time.
